Data from patent US20240270821A1, “GIP/GLP1/GCG TRI-RECEPTOR AGONISTS AND USES THEREOF” (priority 2023, published 2024).
Like-named read-outs stand apart in the source and are kept apart here. Starred links: 1 amine or outer side, 2 acyl side, 3 side chain; linkers in the order of their positions; H or OH if unused. Non-standard residues stand in square brackets, D forms with d. Groups on a side chain read outwards from the residue. No end group written: not given here. *: point of attachment. C18 diacid = O=C(O)CCCCCCCCCCCCCCCCC(=O)*; Phe(4-CN) = N#Cc1ccc(C[C@H](N)C(=O)O)cc1; αMePhe(2-F) = C[C@](N)(Cc1ccccc1F)C(=O)O; γGlu = O=C(O)[C@H](CCC(=O)[*:2])N[*:1]; αMe4Pal = C[C@](N)(Cc1ccncc1)C(=O)O; αMeY = C[C@](N)(Cc1ccc(O)cc1)C(=O)O; 4Pal = N[C@@H](Cc1ccncc1)C(=O)O; αMeL = CC(C)C[C@](C)(N)C(=O)O; αMeS = C[C@](N)(CO)C(=O)O; Orn = NCCC[C@H](N)C(=O)O; AEEA = NCCOCCOCC(=O)O; Aib = CC(C)(N)C(=O)O

What was measured:
Format in all cases: cell-based
hGIPR [1] = molecular target: T1, hGIPR (Homo sapiens, UniProt P48546); assay: Functional cAMP activity in the presence of 1% HSA; conditions: read-out: cAMP Rel EC50, hGIPR
T1 sequence (P48546 22-466): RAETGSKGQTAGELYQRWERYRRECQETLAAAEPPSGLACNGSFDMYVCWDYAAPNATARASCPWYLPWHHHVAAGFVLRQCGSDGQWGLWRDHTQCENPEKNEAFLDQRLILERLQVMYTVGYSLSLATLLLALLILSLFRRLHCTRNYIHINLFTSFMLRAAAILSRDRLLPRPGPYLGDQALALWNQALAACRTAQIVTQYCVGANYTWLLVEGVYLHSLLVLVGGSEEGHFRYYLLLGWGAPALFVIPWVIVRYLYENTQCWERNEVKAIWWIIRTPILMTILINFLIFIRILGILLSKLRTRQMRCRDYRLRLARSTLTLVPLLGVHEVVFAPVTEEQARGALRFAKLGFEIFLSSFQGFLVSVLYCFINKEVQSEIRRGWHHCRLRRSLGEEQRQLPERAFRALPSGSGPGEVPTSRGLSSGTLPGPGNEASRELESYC

hGcgR = hGcgR (Homo sapiens, UniProt P47871); assay: Functional cAMP activation in the presence of 0.1% casein (no HSA); conditions: read-out: Relative cAMP EC50, hGcgR;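 note: intracellular cAMP rise after 30 min at 37 °C, read by HTRF against a cAMP standard curve, scaled from buffer only (0%) to maximal control ligand response (100%)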
Sequence of hGcgR (P47871 26-477): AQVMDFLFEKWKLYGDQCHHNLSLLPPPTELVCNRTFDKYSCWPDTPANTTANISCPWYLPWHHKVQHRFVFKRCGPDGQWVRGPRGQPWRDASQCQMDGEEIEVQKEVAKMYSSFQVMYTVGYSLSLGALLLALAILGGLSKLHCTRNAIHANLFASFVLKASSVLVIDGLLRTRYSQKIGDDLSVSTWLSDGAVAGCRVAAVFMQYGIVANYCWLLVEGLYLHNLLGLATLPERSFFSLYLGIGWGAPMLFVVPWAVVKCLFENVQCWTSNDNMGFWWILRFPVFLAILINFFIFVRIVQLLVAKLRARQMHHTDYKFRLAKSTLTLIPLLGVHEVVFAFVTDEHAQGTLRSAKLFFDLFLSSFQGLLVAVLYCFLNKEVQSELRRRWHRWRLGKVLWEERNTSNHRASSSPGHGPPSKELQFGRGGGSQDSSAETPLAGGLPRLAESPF

human GcgR = human GcgR (Homo sapiens, UniProt P47871); assay: Functional cAMP activity in the presence of 1% HSA; conditions: read-out: cAMP Rel EC50, hGcgR
Sequence of human GcgR (P47871 26-477): as above

hGLP-1R [2] = molecular target: T2, hGLP-1R (Homo sapiens, UniProt P43220); assay: Functional cAMP activity in the presence of 1% HSA; conditions: read-out: cAMP Rel EC50, hGLP-1R
T2 sequence (P43220 24-463): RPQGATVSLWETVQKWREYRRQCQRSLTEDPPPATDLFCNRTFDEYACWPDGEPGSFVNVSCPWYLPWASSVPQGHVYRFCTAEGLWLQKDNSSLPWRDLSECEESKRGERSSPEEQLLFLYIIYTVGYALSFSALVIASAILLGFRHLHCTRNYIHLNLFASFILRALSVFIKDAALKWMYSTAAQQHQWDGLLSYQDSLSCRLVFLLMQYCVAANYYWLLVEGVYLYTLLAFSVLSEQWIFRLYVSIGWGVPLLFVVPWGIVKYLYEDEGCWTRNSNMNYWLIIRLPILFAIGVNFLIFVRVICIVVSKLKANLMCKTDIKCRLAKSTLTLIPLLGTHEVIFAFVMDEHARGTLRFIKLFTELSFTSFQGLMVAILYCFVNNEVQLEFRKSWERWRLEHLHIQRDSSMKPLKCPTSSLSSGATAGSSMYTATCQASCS

hGLP-1R [3] = molecular target: T2, hGLP-1R; assay: Functional cAMP activation in the presence of 0.1% casein (no HSA); conditions: read-out: Relative cAMP EC50, hGLP-1R;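 for Relative cAMP EC50, hGIPR: intracellular cAMP rise after 30 min at 37 °C read by HTRF against a standard curve, scaled between buffer alone (0%) and top control ligand concentration (100%), four-parameter fit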;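 for Relative cAMP EC50, hGLP-1R: intracellular cAMP rise after 30 min at 37 °C read by HTRF, normalized between buffer only (0%) and maximal control ligand (100%), four-parameter variable-slope fit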
hGIPR [4] = molecular target: T1, hGIPR; assay: as above; conditions: read-out: Relative cAMP EC50, hGIPR
[5] = in the presence of 0.1% casein (no HSA), geometric mean
[6] = HEK-293 clonal cell line, 1% HSA, geometric mean of relative EC50
[7] = in the presence of 0.1% casein (no HSA), geometric mean of relative EC50
[8] = 0.1% casein, no HSA, geometric mean

Compound	EC50 (hGIPR [1]) [nM]	EC50 (human GcgR) [nM]	EC50 (hGLP-1R [2]) [nM]	EC50 (hGcgR) [nM]	EC50 (hGLP-1R [3]) [nM]	EC50 (hGIPR [4]) [nM]	further results
H-Y[Aib]QGTFTSD[Phe(4-CN)]S[Orn][αMeL]LDKK([AEEA-γGlu-C18 diacid])AQ[Aib]AFIEYLLE[Aib]GHSSGAPPPSGS-NH2 [Example 190]	59.4	331	172				EC50 (hGcgR; [5]): 2.95 nM; EC50 (hGLP-1R [3]; [5]): 1.41 nM; EC50 (hGIPR [4]; [5]): 0.306 nM
H-Y[Aib]QGT[αMePhe(2-F)]TSD[4Pal]SI[αMeL]LD[Orn]K([AEEA-γGlu-C18 diacid])AQ[αMe4Pal][Orn]FI[dE][αMeY]LIEGGPSSGDPPPEGTGE-NH2 [Example 732]	1.26	327	27.2	2.18	0.268	0.0118	
CC[C@H](C)[C@H](NC(=O)[C@H](Cc1ccccc1)NC(=O)[C@H](C)NC(=O)[C@](C)(Cc1ccncc1)NC(=O)[C@H](CCC(N)=O)NC(=O)[C@H](C)NC(=O)[C@H](CCCCNC(=O)COCCOCCNC(=O)CC[C@H](NC(=O)CC[C@H](NC(=O)CCCCCCCCCCCCCCCCC(=O)O)C(=O)O)C(=O)O)NC(=O)[C@H](CCCN)NC(=O)[C@H](CC(=O)O)NC(=O)[C@H](CC(C)C)NC(=O)[C@](C)(CC(C)C)NC(=O)[C@H](CCC(N)=O)NC(=O)[C@H](CO)NC(=O)[C@H](Cc1ccncc1)NC(=O)[C@H](CC(=O)O)NC(=O)[C@H](CO)NC(=O)[C@@H](NC(=O)[C@H](Cc1ccccc1)NC(=O)[C@@H](NC(=O)CNC(=O)[C@H](CCC(N)=O)NC(=O)C(C)(C)NC(=O)[C@@H](N)Cc1ccc(O)cc1)[C@@H](C)O)[C@@H](C)O)C(=O)N[C@@H](CCC(=O)O)C(=O)N[C@@H](Cc1ccc(O)cc1)C(=O)N[C@@H](CC(C)C)C(=O)N[C@H](C(=O)N[C@@H](CCC(=O)O)C(=O)N[C@H](C)C(=O)NCC(=O)N1CCC[C@H]1C(=O)N[C@@H](CO)C(=O)N[C@@H](CO)C(=O)NCC(=O)N[C@@H](C)C(=O)N1CCC[C@H]1C(=O)N1CCC[C@H]1C(=O)N1CCC[C@H]1C(=O)N[C@@H](CCC(=O)O)C(=O)NCC(=O)N[C@@H](CO)C(N)=O)[C@@H](C)CC [Example 1020]	27.3	478	146				EC50 (hGcgR; [5]): 5.87 nM; EC50 (hGLP-1R [3]; [5]): 2.29 nM; EC50 (hGIPR [4]; [5]): 0.309 nM
H-Y[Aib]QGT[αMePhe(2-F)]TSD[4Pal]SI[αMeL]LDKK([γGlu-γGlu-C18 diacid])AQ[Aib][Orn]FIEYLAEGGPSSGEPPPEGSEE-NH2 [Example 650]							EC50 (hGIPR [1]; [6]): 3.1 nM; EC50 (hGcgR; [7]): 16.2 nM; EC50 (human GcgR; [6]): 574 nM; EC50 (hGLP-1R [2]; [6]): 31.4 nM; EC50 (hGLP-1R [3]; [7]): 0.649 nM; EC50 (hGIPR [4]; [7]): 0.0814 nM
H-Y[Aib]QGT[αMePhe(2-F)]TSD[4Pal]SI[αMeL]LDKK([γGlu-γGlu-C18 diacid])AQ[Aib]AFIEYLSEGGPSSGEPPPSGSEE-NH2 [Example 632]							EC50 (hGIPR [1]; [6]): 5.48 nM; EC50 (hGcgR; [7]): 13.5 nM; EC50 (human GcgR; [6]): 1600 nM; EC50 (hGLP-1R [2]; [6]): 88.2 nM; EC50 (hGLP-1R [3]; [7]): 0.951 nM; EC50 (hGIPR [4]; [7]): 0.068 nM
H-Y[Aib]QGT[αMePhe(2-F)]TSD[4Pal]SILLDKK([γGlu-γGlu-C18 diacid])AQ[Aib]AFIE[4Pal]LEEGGPSSGAPPPSGTE-NH2 [Example 550]	5.94	996	262	11.7	2.12	0.0876	
H-Y[Aib]QGT[αMePhe(2-F)]TSD[4Pal]SILLDKK([γGlu-γGlu-C18 diacid])AQ[Aib]AFIEWLQEGGPSSGEPPPSGTEE-NH2 [Example 579]	3.79	679	67.3	2.36	0.252	0.0171	
Y[Aib]QGT[αMePhe(2-F)]TSD[4Pal][αMeS]I[αMeL]LD[Orn]QAQ[αMe4Pal]EFI[dE][αMeY]LIEGGPSSGAPPPSGGGE-NH2 [Example 1234]	0.011	11.7	1.15				EC50 (hGcgR; [8]): 11.6 nM; EC50 (hGLP-1R [3]; [8]): 1.17 nM; EC50 (hGIPR [4]; [8]): 0.0135 nM
H-Y[Aib]QGT[αMePhe(2-F)]TSD[4Pal]SI[αMeL]LD[Orn]K([AEEA-γGlu-C18 diacid])AQ[αMe4Pal][Orn]FI[dE][αMeY]LEEGGPSSGEPPPEGT-NH2 [Example 506]	28.7	2330	224	17.1	2.14	0.308	
